# Experimental data from US6461997B1, “Triazole sulfones having herbicidal activity” (Monsanto Technology LLC, priority 1999, dated 2002).
# Key:
# [1] = tested on: SASKR (russian thistle); test: Pre-plant incorporated (PPI) herbicidal activity, cool season; format: in vivo, Salsola kali; conditions: for PPI activity GR80, SASKR: pre-plant incorporated, lowest tested rate with 80% or greater inhibition, about 14 days
# Description: (§1) In another set of tests, the pre-plant incorporated (PPI) activity of compounds of this invention was evaluated on the same species as for the pre-emergence tests described above. In the PPI tests the following procedure, designed to simulate PPI application, was used.
# (§2) A pre-prepared topsoil mixture (described above) was placed in a pot and compacted to a depth of 1.0 to 1.25 cm from the top of the pot. Seeds of each of several monocotyledonous and dicotyledonous annual plant species were placed on top of the soil. A sufficient quantity of soil to cover the seeds and level fill the pot was weighed into an open container. A known amount of the test compound was dissolved or suspended in an organic solvent and applied by spraying to this cover soil. The cover soil was thoroughly mixed to distribute the test compound throughout the cover soil, and was then applied as a cover layer over the seeds. Untreated soil was used as a cover layer for control pots. After treatment the plants were placed in a greenhouse where they received 0.64 cm of overhead irrigation. All subsequent watering consisted of a light overhead mist and/or subirrigation as needed for germination and growth. Tables 9 and 10 below relate to warm season plant species which were placed after pre-emergence treatment in a greenhouse with a 30/21° C. day/night temperature regime. Tables 11 and 12 below relates to cool season plant species placed after pre-emergence treatment in a greenhouse or growth chamber with an 18/13° C. day/night temperature regime. Only the compounds of Examples 1, 6, 8, 11, 13 and 15-20 were included in PPI tests.
# (§3) Approximately 14 days after planting and treating, the plants were observed and herbicidal efficacy recorded as percent inhibition by comparison with untreated plants.
# [2] = tested on: BRAPP (broadleaf signalgrass); test: Pre-plant incorporated (PPI) herbicidal activity, warm season; format: in vivo, Brachiaria platyphylla; conditions: for PPI activity GR80, BRAPP: pre-plant incorporated, lowest tested rate with 80% or greater inhibition, about 14 days
# Description: as §1, §2, §3
# [3] = tested on: CIRAR (canada thistle (seedling)); test: Pre-emergence herbicidal activity, warm season; format: in vivo, Cirsium arvense; conditions: GR80 = lowest tested rate (300, 100, 30, 10 g/ha) with 80% or greater inhibition; approx. 14 days after treating; 30/21° C.
# Procedure, shortened: (§4)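 Seeds sown in sterilised fertilised topsoil received surface-applied compound in 50:50 acetone/water, typically at 300, 100, 30 and 10 g/ha, then greenhouse-grown at 30/21° C (warm-season species) or 18/13° C (cool-season species). Percent inhibition versus untreated plants was scored at about 14 days, giving GR80; an asterisk marks activity short of 80% at the top rate.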
# [4] = tested on: SOLNI (black nightshade); test: Pre-plant incorporated (PPI) herbicidal activity, warm season; format: in vivo, Solanum nigrum; conditions: for PPI activity (GR80) SOLNI: pre-plant incorporated, GR80 = lowest tested rate with 80% or greater inhibition, approx. 14 days after treating, 30/21° C.
# Description: as §1, §2, §3
# [5] = tested on: SORHA (johnsongrass (seedling)); test: Pre-emergence herbicidal activity, warm season; format: in vivo, Sorghum halepense; conditions: GR80 = lowest tested rate (300, 100, 30, 10 g/ha) with 80% or greater inhibition; approx. 14 days after treating; 30/21° C.
# Procedure, shortened: (§5)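 GR80 values derive from percent inhibition relative to untreated plants, read roughly 14 days after sowing and pre-emergence soil-surface treatment (compound in 50:50 acetone/water; rates typically 10, 30, 100, 300 g/ha). Warm-season weeds grew at 30/21° C day/night, cool-season ones at 18/13° C; an asterisk marks activity without reaching 80% at the highest rate.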
# [6] = tested on: CHEAL (common lambsquarters); test: Pre-emergence herbicidal activity, warm season; format: in vivo, Chenopodium album; conditions: GR80 = lowest tested rate (300, 100, 30, 10 g/ha) with 80% or greater inhibition; approx. 14 days after treating; 30/21° C.
# Procedure, shortened: as §4
# [7] = tested on: wheat (TRZAW); test: Selectivity test, PPI, cool season crop; format: in vivo, Triticum aestivum; conditions: PPI application
# Description: as §2, §3
# Additional pre-emergence and PPI tests were conducted by the procedures described above, on warm and cool season weed species in the presence of crop species, to assess herbicidal selectivity. Crop species included in warm season tests were corn (Zea mays, ZEAMX), rice (Oryza sativa, ORYSA) and soybean (Glycine max, GLYMX). Crop species included in cool season tests were wheat (Triticum aestivum, TRZAW), barley (Hordeunm vulgare, HORVX) and oilseed rape (Brassica napus, BRSNS).
# Tables 15 and 16 relate to pre-emergence and PPI tests respectively on warm season species. Table 17 relates to pre-emergence tests on cool season species.
# [8] = tested on: CHEAL (common lambsquarters); test: Pre-plant incorporated (PPI) herbicidal activity, warm season; format: in vivo, Chenopodium album; conditions: for Percent inhibition CHEAL: PPI application; for PPI activity (GR80) CHEAL: pre-plant incorporated, GR80 = lowest tested rate with 80% or greater inhibition, approx. 14 days after treating, 30/21° C.
# Description: as §1, §2, §3
# [9] = tested on: PANDI (fall panicum); test: Pre-emergence herbicidal activity, warm season; format: in vivo, Panicum dichotomiflorum; conditions: GR80 = lowest tested rate (300, 100, 30, 10 g/ha) with 80% or greater inhibition; approx. 14 days after treating; 30/21° C.
# Procedure, shortened: as §5
# [10] = tested on: AGSST (creeping bentgrass); test: Pre-plant incorporated (PPI) herbicidal activity, cool season; format: in vivo, Agrostis stolonifera; conditions: for PPI activity GR80, AGSST: pre-plant incorporated, lowest tested rate with 80% or greater inhibition, about 14 days
# Description: as §1, §2, §3
# [11] = tested on: POROL (common purslane); test: Pre-emergence herbicidal activity, warm season; format: in vivo, Portulaca oleracea; conditions: GR80 = lowest tested rate (300, 100, 30, 10 g/ha) with 80% or greater inhibition; approx. 14 days after treating; 30/21° C.
# Procedure, shortened: as §4
# [12] = tested on: BRAPP (broadleaf signalgrass); test: Pre-emergence herbicidal activity, warm season; format: in vivo, Brachiaria platyphylla; conditions: GR80 = lowest tested rate (300, 100, 30, 10 g/ha) with 80% or greater inhibition; approx. 14 days after treating; 30/21° C.
# Procedure, shortened: as §5
# [13] = weed, PPI application, 300 g/ha
# [14] = weed, PPI application, 900 g/ha
compound,measurement,setting,value
CCN(CC)C(=O)n1cnc(S(=O)(=O)C(F)(F)SCC(=O)OC)n1 [Example 11],"PPI activity GR80, SASKR",[1],100 g/ha
same,Percent inhibition SASKR,"[1]; weed, PPI application, 10 g/ha",0%
same,Percent inhibition SASKR,"[1]; weed, PPI application, 30 g/ha",20%
same,Percent inhibition SASKR,[1]; [13],30%
same,Percent inhibition SASKR,[1]; [14],65%
same,Percent inhibition BRAPP,"[2]; PPI application, 10 g/ha",0%
same,Percent inhibition BRAPP,"[2]; PPI application, 30 g/ha",0%
same,Percent inhibition BRAPP,"[2]; PPI application, 100 g/ha",60%
same,Percent inhibition BRAPP,"[2]; PPI application, 300 g/ha",100%
same,Percent inhibition BRAPP,"[2]; PPI application, 900 g/ha",100%
same,"PPI activity GR80, BRAPP",[2],300 g/ha
same,Pre-emergence activity (GR80) CIRAR,[3],300 g/ha
same,Percent inhibition SOLNI,"[4]; PPI application, 10 g/ha",0%
same,Percent inhibition SOLNI,"[4]; PPI application, 30 g/ha",0%
same,Percent inhibition SOLNI,"[4]; PPI application, 100 g/ha",30%
same,Percent inhibition SOLNI,"[4]; PPI application, 300 g/ha",50%
same,Percent inhibition SOLNI,"[4]; PPI application, 900 g/ha",100%
same,PPI activity (GR80) SOLNI,[4],300 g/ha
same,Pre-emergence activity (GR80) SORHA,[5],300 g/ha
same,Pre-emergence activity (GR80) CHEAL,[6],300 g/ha
same,Percent inhibition TRZAW,[7]; 10 g/ha,0%
same,Percent inhibition TRZAW,[7]; 30 g/ha,0%
same,Percent inhibition TRZAW,[7]; 100 g/ha,0%
same,Percent inhibition TRZAW,[7]; 300 g/ha,0%
same,Percent inhibition TRZAW,[7]; 900 g/ha,20%
same,Percent inhibition CHEAL,[8]; 10 g/ha,30%
same,Percent inhibition CHEAL,[8]; 30 g/ha,60%
same,Percent inhibition CHEAL,[8]; 100 g/ha,60%
same,Percent inhibition CHEAL,[8]; 300 g/ha,100%
same,Percent inhibition CHEAL,[8]; 900 g/ha,100%
same,PPI activity (GR80) CHEAL,[8],100 g/ha
same,Pre-emergence activity (GR80) PANDI,[9],300 g/ha
same,"PPI activity GR80, AGSST",[10],300 g/ha
same,Percent inhibition AGSST,"[10]; weed, PPI application, 10 g/ha",60%
same,Percent inhibition AGSST,"[10]; weed, PPI application, 30 g/ha",50%
same,Percent inhibition AGSST,"[10]; weed, PPI application, 100 g/ha",60%
same,Percent inhibition AGSST,[10]; [13],90%
same,Percent inhibition AGSST,[10]; [14],100%
"C=CCC(F)(F)S(=O)(=O)c1ncn(C(=O)N(CC)CC)n1 [Example 17, 1-(N,N-diethylcarbamoyl)-3-[(1,1-difluoro-3-butenyl)sulfonyl]-1,2,4-triazole]",Pre-emergence activity (GR80) POROL,[11],300 g/ha
same,inhibition at 10 g/ha,"[1]; Salsola kali, weed, PPI application, 10 g/ha, read-out: Percent inhibition SASKR",0%
same,inhibition at 30 g/ha,"[1]; Salsola kali, weed, PPI application, 30 g/ha, read-out: Percent inhibition SASKR",0%
same,inhibition at 100 g/ha,"[1]; Salsola kali, weed, PPI application, 100 g/ha, read-out: Percent inhibition SASKR",0%
same,inhibition at 300 g/ha,"[1]; Salsola kali, weed, PPI application, 300 g/ha, read-out: Percent inhibition SASKR",60%
same,inhibition at 900 g/ha,"[1]; Salsola kali, weed, PPI application, 900 g/ha, read-out: Percent inhibition SASKR",100%
same,"PPI activity GR80, SASKR",[1],30 g/ha
same,inhibition at 10 g/ha,"[2]; Urochloa platyphylla, PPI application, 10 g/ha, read-out: Percent inhibition BRAPP",0%
same,inhibition at 30 g/ha,"[2]; Urochloa platyphylla, PPI application, 30 g/ha, read-out: Percent inhibition BRAPP",0%
same,inhibition at 100 g/ha,"[2]; Urochloa platyphylla, PPI application, 100 g/ha, read-out: Percent inhibition BRAPP",50%
same,inhibition at 300 g/ha,"[2]; Urochloa platyphylla, PPI application, 300 g/ha, read-out: Percent inhibition BRAPP",100%
same,inhibition at 900 g/ha,"[2]; Urochloa platyphylla, PPI application, 900 g/ha, read-out: Percent inhibition BRAPP",100%
same,"PPI activity GR80, BRAPP",[2],100 g/ha
same,Pre-emergence activity (GR80) BRAPP,[12],300 g/ha
same,inhibition at 10 g/ha,"[4]; Solanum nigrum, PPI application, 10 g/ha, read-out: Percent inhibition SOLNI",0%
same,inhibition at 30 g/ha,"[4]; Solanum nigrum, PPI application, 30 g/ha, read-out: Percent inhibition SOLNI",0%
same,inhibition at 100 g/ha,"[4]; Solanum nigrum, PPI application, 100 g/ha, read-out: Percent inhibition SOLNI",80%
same,inhibition at 300 g/ha,"[4]; Solanum nigrum, PPI application, 300 g/ha, read-out: Percent inhibition SOLNI",70%
same,inhibition at 900 g/ha,"[4]; Solanum nigrum, PPI application, 900 g/ha, read-out: Percent inhibition SOLNI",100%
same,PPI activity (GR80) SOLNI,[4],30 g/ha
same,Pre-emergence activity (GR80) SORHA,[5],100 g/ha
same,Pre-emergence activity (GR80) CHEAL,[6],100 g/ha
same,inhibition at 10 g/ha,"[7]; Triticum aestivum, 10 g/ha, read-out: Percent inhibition TRZAW",0%
same,inhibition at 30 g/ha,"[7]; Triticum aestivum, 30 g/ha, read-out: Percent inhibition TRZAW",0%
same,inhibition at 100 g/ha,"[7]; Triticum aestivum, 100 g/ha, read-out: Percent inhibition TRZAW",10%
same,inhibition at 300 g/ha,"[7]; Triticum aestivum, 300 g/ha, read-out: Percent inhibition TRZAW",30%
same,inhibition at 900 g/ha,"[7]; Triticum aestivum, 900 g/ha, read-out: Percent inhibition TRZAW",60%
same,PPI activity (GR80) CHEAL,[8],300 g/ha
same,Pre-emergence activity (GR80) PANDI,[9],100 g/ha
same,inhibition at 10 g/ha,"[10]; Agrostis stolonifera, weed, PPI application, 10 g/ha, read-out: Percent inhibition AGSST",70%
same,inhibition at 30 g/ha,"[10]; Agrostis stolonifera, weed, PPI application, 30 g/ha, read-out: Percent inhibition AGSST",95%
same,inhibition at 100 g/ha,"[10]; Agrostis stolonifera, weed, PPI application, 100 g/ha, read-out: Percent inhibition AGSST",95%
same,inhibition at 300 g/ha,"[10]; Agrostis stolonifera, weed, PPI application, 300 g/ha, read-out: Percent inhibition AGSST",100%
same,inhibition at 900 g/ha,"[10]; Agrostis stolonifera, weed, PPI application, 900 g/ha, read-out: Percent inhibition AGSST",100%
same,"PPI activity GR80, AGSST",[10],10 g/ha
